# Reference: US4284635A, “Analgesic 1,2,4,5-tetra-alkyl-4-arylpiperidines” (Eli Lilly and Company, priority 1978, dated 1981)
# Test: rat-tail jerk assay (rats subjected to a heat sensation)
# Format: in vivo
# Conditions: subcutaneous
# Text: The analgesic activity of a number of compounds provided by this invention has been determined in the standard rat-tail jerk assay and the mouse writhing assay. The results in the mouse writhing assay are presented as the effective dose in mg./kg. of the tested compound required to inhibit induced writhing in the test animals by fifty percent (ED50). Results are presented in Column II for both subcutaneous (S.C.) and oral (p.o.) administration of the test compound recited in Column I.
# Column III presents the effects of the claimed compounds on rats subjected to a heat sensation. The compounds recited in column I were administered subcutaneously to the test animals. The test results are reported as the minimum effective dose (MED) of compound in mg./kg. needed to delay response to the pain stimulus by one second compared to control animals.
smiles,measurement,value
"CC1CC(C)(c2cccc(O)c2)C(C)CN1C (centres unmarked) [1,2,4,5-Tetramethyl-4-(3-hydroxyphenyl)piperidine]",Rat Tail Jerk MED 1 sec. (minimum effective dose needed to delay response to the pain stimulus by one second compared to control animals),1 mg/kg
"COc1cccc(C2(C)CC(C)N(C)CC2C)c1 (centres unmarked) [1,2,4,5-Tetramethyl-4-(3-methoxyphenyl)piperidine]",Rat Tail Jerk MED 1 sec. (minimum effective dose needed to delay response to the pain stimulus by one second compared to control animals),10 mg/kg
"CCCC1(c2cccc(OC)c2)CC(C)N(C)CC1C (centres unmarked) [1,2,5-Trimethyl-4-n-propyl-4-(3-methoxyphenyl)piperidine]",Rat Tail Jerk MED 1 sec. (minimum effective dose needed to delay response to the pain stimulus by one second compared to control animals),2 mg/kg
"CCCC1(c2cccc(O)c2)CC(C)N(C)CC1C (centres unmarked) [1,2,5-trimethyl-4-n-propyl-4-(3-hydroxyphenyl)piperidine]",Rat Tail Jerk MED 1 sec. (minimum effective dose needed to delay response to the pain stimulus by one second compared to control animals),20 mg/kg
"CCOC(=O)C1(c2ccccc2)CCN(C)CC1 [Meperidine, reference compound]",Rat Tail Jerk MED 1 sec. (minimum effective dose needed to delay response to the pain stimulus by one second compared to control animals),3.0 mg/kg
